Test [1] concerns the target GDP-bound NRAS wild-type protein (Homo sapiens, UniProt P01111). As to the kind of experiment: Binding to NRAS by surface plasmon resonance (SPR), Single Cycle Kinetics. Conditions: SPR; for NRAS/KRAS (ratio of KD value for NRAS to KD value for KRAS) / NRAS/KRAS (ratio of KD value with respect to NRAS to KD value with respect to KRAS): GDP-bound NRAS wild-type vs GDP-bound KRAS wild-type. For orientation: Surface plasmon resonance follows binding to a sensor surface in real time, without labels.

Test [2] deals with GDP-bound HRAS wild-type protein (Homo sapiens, UniProt P01112). As to the kind of experiment: Binding to HRAS by surface plasmon resonance (SPR), Single Cycle Kinetics. Particulars: SPR; for HRAS/KRAS (ratio of KD value for HRAS to KD value for KRAS) / HRAS/KRAS (ratio of KD value with respect to HRAS to KD value with respect to KRAS): GDP-bound HRAS wild-type vs GDP-bound KRAS wild-type.

Where a SMILES comes first, the peptide text is derived from it. Bridges are numbered along the chain shown (N, C = ends). [ ]: non-standard residue; d: D form. hPhe(3-Cl-4-CF3) = N[C@@H](CCc1ccc(C(F)(F)F)c(Cl)c1)C(=O)O; NPrPhe(4-CF3) = CCCN[C@@H](Cc1ccc(C(F)(F)F)cc1)C(=O)O; NMeGly(cPent) = CN[C@H](C(=O)O)C1CCCC1; Hyp = O=C(O)[C@@H]1C[C@@H](O)CN1; NMeL = CN[C@@H](CC(C)C)C(=O)O; Ac4c = NC1(C(=O)O)CCC1; NEtG = CCNCC(=O)O; Sar = CNCC(=O)O

Chain of GDP-bound HRAS wild-type protein (P01112 whole entry): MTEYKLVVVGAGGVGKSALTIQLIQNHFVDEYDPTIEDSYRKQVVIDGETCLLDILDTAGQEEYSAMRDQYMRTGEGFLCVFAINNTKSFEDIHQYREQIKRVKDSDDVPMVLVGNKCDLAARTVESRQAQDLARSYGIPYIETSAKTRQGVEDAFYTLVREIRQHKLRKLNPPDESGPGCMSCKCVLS
Chain of GDP-bound NRAS wild-type protein (P01111 whole entry): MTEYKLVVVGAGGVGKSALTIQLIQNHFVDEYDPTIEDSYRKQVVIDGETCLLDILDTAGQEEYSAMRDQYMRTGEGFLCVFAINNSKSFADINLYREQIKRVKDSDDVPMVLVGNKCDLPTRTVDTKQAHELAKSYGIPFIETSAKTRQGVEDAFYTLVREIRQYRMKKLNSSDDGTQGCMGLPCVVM

With `CCCN(C)C(=O)[C@@H]1CC(=O)N(C)[C@@H](COC)C(=O)N[C@@H]([C@@H](C)CC)C(=O)N(C)CC(=O)N(C)[C@H]2C/C=C\CCN(C2=O)[C@@H](Cc2ccc(C(F)(F)F)cc2)C(=O)N(C)CC(=O)N[C@@H](CCc2ccc(C(F)(F)F)c(OC)c2)C(=O)N2C[C@H](OCC)C[C@H]2C(=O)NC2(CC(C)(C)C2)C(=O)N(C)[C@@H](C2CCCC2)C(=O)N1C` [PP1656], the “NRAS/KRAS (ratio of KD value for NRAS to KD value for KRAS)” value in test [1] was “AA (a compound having 20 or more is denoted as AA)”. In addition, the “HRAS/KRAS (ratio of KD value for HRAS to KD value for KRAS)” value in test [2] was “A (a compound having 10 or more and less than 20 is denoted as A)”.

For `CCO[C@@H]1C[C@H]2C(=O)NC3(CC(C)(C)C3)C(=O)N(C)[C@@H](C3CCCC3)C(=O)N(C)[C@H](CC)CC(=O)N(C)[C@@H](CC3CC3)C(=O)N[C@@H]([C@@H](C)CC)C(=O)N(C)CC(=O)N(C)[C@H]3C/C=C\CCN(C3=O)[C@@H](Cc3ccc(C(F)(F)F)cc3)C(=O)N(C)CC(=O)N[C@@H](CCc3cc(F)c(C(F)(F)F)c(F)c3)C(=O)N2C1` [PP1629], in test [1], the “NRAS/KRAS (ratio of KD value for NRAS to KD value for KRAS)” value is “B (a compound having 3 or more and less than 10 is denoted as B)”. For the same compound, in test [2], the “HRAS/KRAS (ratio of KD value for HRAS to KD value for KRAS)” value is “B (a compound having 3 or more and less than 10 is denoted as B)”.

`CCCN1C(=O)CN(C)C(=O)CN(CC)C(=O)[C@H]([C@@H](C)CC)NC(=O)[C@H](CC(C)C)N(C)C(=O)C[C@@H](C(=O)N(C)C)NC(=O)[C@H](C2CCCC2)N(C)C(=O)C2(CCC2)NC(=O)[C@@H]2C[C@@H](OCC)CN2C(=O)[C@H](CCc2ccc(C(F)(F)F)c(Cl)c2)NC(=O)CN(C)C(=O)[C@@H]1Cc1ccc(C(F)(F)F)cc1` [PP0372] ([NMeL]I[NEtG][Sar][NPrPhe(4-CF3)][Sar][hPhe(3-Cl-4-CF3)][Hyp](Et)[Ac4c][NMeGly(cPent)]D-NMe2; lactam N-11): the “NRAS/KRAS (ratio of KD for GDP-bound NRAS wild-type to KD for KRAS)” value in test [1] (KD ratio NRAS/KRAS) was “B (a compound having 3 or more and less than 10 is denoted as B)”. Also, the “HRAS/KRAS (ratio of KD for GDP-bound HRAS wild-type to KD for KRAS)” value in test [2] (KD ratio HRAS/KRAS) is “B (a compound having 3 or more and less than 10 is denoted as B)”.

Consider `CCC[C@H]1C(=O)N[C@@H]([C@@H](C)CC)C(=O)N(C2CC2)CC(=O)N(C)[C@H]2C/C=C\CCN(C2=O)[C@@H](Cc2ccc(C(F)(F)F)cc2)C(=O)N(C)CC(=O)N[C@@H](CCc2ccc(C(F)(F)F)c(OC)c2)C(=O)N2C[C@H](OCC)C[C@H]2C(=O)NC2(CC(C)(C)C2)C(=O)N(C)[C@@H](C2CCCC2)C(=O)N(C)[C@H](C(=O)N(C)C)CC(=O)N1C` [PP2105], for which the “NRAS/KRAS (ratio of KD value with respect to NRAS to KD value with respect to KRAS)” value in test [1] is “A (a compound having 10 or more and less than 20 is denoted as A)”. The “HRAS/KRAS (ratio of KD value with respect to HRAS to KD value with respect to KRAS)” value in test [2] was “A (a compound having 10 or more and less than 20 is denoted as A)”.

Take `CCC[C@H]1C(=O)N[C@@H]([C@@H](C)CC)C(=O)N(C)CC(=O)N(C)[C@H]2C/C=C\CCN(C2=O)[C@@H](Cc2ccc(C(F)(F)F)cc2)C(=O)N(C)CC(=O)N[C@@H](CCc2cc(F)c(Cl)c(F)c2)C(=O)N2C[C@H](OCC)C[C@H]2C(=O)NC2(CC(C)(C)C2)C(=O)N(C)[C@@H](C2CCCC2)C(=O)N(C)[C@H](C(=O)N(C)C)CC(=O)N1C` [PP1758]: in test [1], the “NRAS/KRAS (ratio of KD value for NRAS to KD value for KRAS)” value is listed as “AA (a compound having 20 or more is denoted as AA)”. Also, the “HRAS/KRAS (ratio of KD value for HRAS to KD value for KRAS)” value in test [2] was “A (a compound having 10 or more and less than 20 is denoted as A)”.

As for `CC[C@H](C)[C@@H]1NC(=O)[C@H](CC2CCC2)N(C)C(=O)C[C@@H](C(=O)N(C)C)N(C)C(=O)[C@H](C2CCCC2)N(C)C(=O)C2(CCC2)N(C)C(=O)[C@@H]2C[C@@H](C)CN2C(=O)[C@H](CCc2cc(F)c(C(F)(F)F)c(F)c2)NC(=O)CN(C)C(=O)[C@H](Cc2ccc(C)cc2)N2CC/C=C\C[C@@H](C2=O)N(C)C(=O)CN(C)C1=O` [PP1803], the “NRAS/KRAS (ratio of KD value for NRAS to KD value for KRAS)” value in test [1] is “A (a compound having 10 or more and less than 20 is denoted as A)”. The “HRAS/KRAS (ratio of KD value for HRAS to KD value for KRAS)” value in test [2] was “B (a compound having 3 or more and less than 10 is denoted as B)”.

As for `CCC[C@H]1C(=O)N[C@@H]([C@@H](C)CC)C(=O)N(C)CC(=O)N(C)[C@H]2C/C=C\CCN(C2=O)[C@@H](CC2CCC(F)(F)CC2)C(=O)N(C)CC(=O)N[C@@H](CCc2ccc(C(F)(F)F)c(OC)c2)C(=O)N2C[C@H](OCC)C[C@H]2C(=O)N(C)C2(CCC2)C(=O)N(C)[C@@H](C2CCCC2)C(=O)N(C)[C@H](C(=O)N(C)C)CC(=O)N1C` [PP2348], the “NRAS/KRAS (ratio of KD value with respect to NRAS to KD value with respect to KRAS)” value in test [1] was “A (a compound having 10 or more and less than 20 is denoted as A)”. Moreover, the “HRAS/KRAS (ratio of KD value with respect to HRAS to KD value with respect to KRAS)” value in test [2] is “A (a compound having 10 or more and less than 20 is denoted as A)”.

The values above are taken from US20250230193A1, “CYCLIC COMPOUND HAVING SELECTIVE KRAS INHIBITORY EFFECT ON HRAS AND NRAS” (CHUGAI SEIYAKU KABUSHIKI KAISHA, priority 2022, published 2025).
